Results taken from patent publication US9902713B2, “Neuroprotective compounds and use thereof” (BOARD OF REGENTS OF THE UNIVERSITY OF TEXAS SYSTEM, priority 2013, dated 2018).

How the values were obtained:
[1] = system: cultured cortical neurons; experiment: MPP+ toxicity in cultured neurons (MTT); assay type: cell-based; conditions: 10 μM compound, 10 μM MPP+, 24 hrs
Method: FIGS. 35A-35B show P7C3-S243 and P7C3-A20 protect cultured hippocampal and cortical neurons from MPP^+ toxicity. […] Experiments were performed 2 independent times with 8-12 replicates of each sample both times.

Protein binding = assay type: in vitro ADME
newborn neurons = experiment: Survival of BrdU-prelabeled newborn neurons (FIG. 4); assay type: in vivo, mice; conditions: BrdU bolus, then twice-daily IP 7 days
Method: (§1) Adult mice were administered a bolus of BrdU (150 mg/kg) to label newborn neurons, and 24 hours later, twice-daily IP treatment was begun with vehicle or compound for 7 days. At the end of the 7 days, the number of surviving BrdU-labeled neurons was quantified. Importantly, under the conditions of this experiment, newborn neurons were labeled prior to exposure to drug, so any increase in number of neurons can be attributed to neuroprotective activity rather than proliferative effects. […] Data shown are mean+/−SEM. P values are shown for comparison to VEH treated group, and were obtained by one-way ANOVA with Dunnet's post-hoc test, using GraphPad Prism 5.0. Asterisks indicate p<0.01 (*) or p<0.0001 (***).
as §1, with “Specifically, in FIG. 4, adult” for “Adult”, “Asterisks indicate p<0.01 (*) or p<0.0001 (***).” left out

[2] = target: peripheral benzodiazepine receptor (translocator protein, TSPO) (Rattus norvegicus, UniProt P16257); experiment: Ligand displacement (Psychoactive Drug Screening Program); assay type: binding
H2122 = experiment: Toxicity towards human cancer cell line; assay type: cell-based; conditions: NCI-H2122
HCC44 = experiment: Toxicity towards human cancer cell line; assay type: cell-based
3A4 = 3A4 (Homo sapiens, UniProt P08684); experiment: Cytochrome P450 inhibition; assay type: in vitro ADME
Chain of 3A4 (P08684 whole entry): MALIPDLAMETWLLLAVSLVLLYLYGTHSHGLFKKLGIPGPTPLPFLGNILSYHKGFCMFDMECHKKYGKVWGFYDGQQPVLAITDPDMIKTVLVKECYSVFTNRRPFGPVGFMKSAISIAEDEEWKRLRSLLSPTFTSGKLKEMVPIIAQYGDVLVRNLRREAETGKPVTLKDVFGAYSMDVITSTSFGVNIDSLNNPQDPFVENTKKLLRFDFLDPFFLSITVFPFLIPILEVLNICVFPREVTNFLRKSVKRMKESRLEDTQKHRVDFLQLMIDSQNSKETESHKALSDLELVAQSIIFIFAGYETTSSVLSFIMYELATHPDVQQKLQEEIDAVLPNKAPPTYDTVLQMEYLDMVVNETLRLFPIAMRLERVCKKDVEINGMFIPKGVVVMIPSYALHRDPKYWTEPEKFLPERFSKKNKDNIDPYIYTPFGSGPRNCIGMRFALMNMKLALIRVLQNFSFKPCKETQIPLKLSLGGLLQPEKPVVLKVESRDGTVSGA

2C9 = 2C9 (Homo sapiens, UniProt P11712); experiment: Cytochrome P450 inhibition; assay type: in vitro ADME
Chain of 2C9 (P11712 whole entry): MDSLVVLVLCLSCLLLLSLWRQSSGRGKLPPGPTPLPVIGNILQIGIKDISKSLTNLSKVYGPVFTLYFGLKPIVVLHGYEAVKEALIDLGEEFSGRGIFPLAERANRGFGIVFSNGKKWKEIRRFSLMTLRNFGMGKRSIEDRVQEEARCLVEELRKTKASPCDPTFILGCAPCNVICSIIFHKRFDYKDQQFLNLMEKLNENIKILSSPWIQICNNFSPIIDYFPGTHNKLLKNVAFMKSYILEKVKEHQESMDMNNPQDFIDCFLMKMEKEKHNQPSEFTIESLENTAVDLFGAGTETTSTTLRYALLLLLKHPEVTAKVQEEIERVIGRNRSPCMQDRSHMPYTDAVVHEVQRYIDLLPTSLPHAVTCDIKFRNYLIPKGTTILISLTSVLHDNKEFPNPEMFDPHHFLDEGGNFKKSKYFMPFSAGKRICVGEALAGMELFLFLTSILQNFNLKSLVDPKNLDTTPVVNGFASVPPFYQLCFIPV

CYP2C19 = CYP2C19 (Homo sapiens, UniProt P33261); experiment: Cytochrome P450 inhibition
Chain of CYP2C19 (P33261 whole entry): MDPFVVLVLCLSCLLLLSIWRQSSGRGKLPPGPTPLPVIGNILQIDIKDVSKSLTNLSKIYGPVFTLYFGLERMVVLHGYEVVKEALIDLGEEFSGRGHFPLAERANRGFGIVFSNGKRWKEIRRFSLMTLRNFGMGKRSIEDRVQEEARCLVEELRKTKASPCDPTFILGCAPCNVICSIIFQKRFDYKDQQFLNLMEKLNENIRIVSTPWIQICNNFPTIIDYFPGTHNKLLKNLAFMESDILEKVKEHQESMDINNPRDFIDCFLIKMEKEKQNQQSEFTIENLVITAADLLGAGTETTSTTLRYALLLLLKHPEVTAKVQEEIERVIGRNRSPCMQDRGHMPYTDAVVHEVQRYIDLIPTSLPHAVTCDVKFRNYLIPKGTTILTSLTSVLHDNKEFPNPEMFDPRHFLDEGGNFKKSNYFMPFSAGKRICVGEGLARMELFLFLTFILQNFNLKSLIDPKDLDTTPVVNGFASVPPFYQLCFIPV

blast-injured mice [3] = experiment: Barnes maze, treatment begun 10 months after blast injury; assay type: in vivo
Source text: After 8 weeks of treatment, mice were completely withdrawn from treatment with vehicle or compound.

blast-injured mice [4] = experiment: Foot slip assay after blast-injury; assay type: in vivo; conditions: 28 days after injury, daily oral 6 mg/kg/day from 24 hours
Source text: Because the cerebellum controls coordination, we next assayed their balance and coordination, using standard procedures (Luong et al., 2011). Mice were trained to cross an 80 cm long beam over 2 days, and then sham or blast-injured on day 3. […] Mice were videotaped during the test, and then analyzed for the number of foot slips by observers blind to treatment group. […] Thus, protective efficacy for cerebellar axonal degeneration after injury by (−)-P7C3-S243 correlated with preservation of motor coordination.
Foot slip assay. We used standard procedures described by Luong et al. (2011) to measure motor balance coordination. During the training period, mice were trained to cross the 80 cm beam to enter a black box with nesting material 3 times a day over 2 consecutive days. Mice were then sham-or blast-Injured on the next day. 24 hrs after injury, daily administration with (−)-P7C3-S243 or vehicle was initiated. Animals were then tested 7 and 28 days after injury. Mice performance was videotaped during the test and foot slips were analyzed by an observer blind to condition and treatment group.

[5] = system: dopaminergic neurons within the substantia nigra; conditions: previously reported; cited from earlier work

SMILES: COc1cccc(NCC(F)Cn2c3ccc(Br)cc3c3cc(Br)ccc32)n1 (racemic) [P7C3-S243, N-(3-(3,6-dibromo-9H-carbazol-9-yl)-2-fluoropropyl)-6-methoxypyridin-2-amine]
- protection (MTT) [1]: significant protection
- protein binding (Protein binding): high
- protection down to (dose) (newborn neurons): 1 mg/kg/day

SMILES: COc1cccc(NCC(F)Cn2c3ccc(Br)cc3c3cc(Br)ccc32)n1 (single isomer, unassigned; (-)) [(−)-P7C3-S243, (−)-N-(3-(3,6-dibromo-9H-carbazol-9-yl)-2-fluoropropyl)-6-methoxypyridin-2-amine]
- IC50 [2]: 0.35 µM
- IC50 (H2122): > 10 µM
- IC50 (HCC44): > 10 µM
- sensitivity of cytochrome P450 (3A4): insensitive
- sensitivity of cytochrome P450 (2C9): insensitive
- IC50 (CYP2C19): 1.9 µM
- time spent in the escape area (blast-injured mice [3]; 3 mg/kg/day begun 10 months after injury, after 4 and 8 weeks): sustained improvement in cognitive function
- cognition relative to vehicle group after withdrawal (blast-injured mice [3]; after 8 weeks of treatment, then withdrawn): sustained improvement in cognition
- increase in number of foot slips (blast-injured mice [4]): normalized

SMILES: COc1cccc(NCC(F)Cn2c3ccc(Br)cc3c3cc(Br)ccc32)c1 (stereo not shown) [P7C3-A20, N-(3-(3,6-dibromo-9H-carbazol-9-yl)-2-fluoropropyl)-3-methoxyaniline]
- protection of substantia nigra neurons from MPTP (earlier report) [5]: protect neurons in the substantia nigra
